Test results: patent publication US12357582B2, “Hydrophobic ion pairing and flash nanoprecipitation for formation of controlled-release nanocarrier formulations” (The Trustees of Princeton University, priority 2017, dated 2025)

B1: Ovalbumin (protein, UniProt P01012 2-386, looked up)
Ovalbumin: GSIGAASMEFCFDVFKELKVHHANENIFYCPIAIMSALAMVYLGAKDSTRTQINKVVRFDKLPGFGDSIEAQCGTSVNVHSSLRDILNQITKPNDVYSFSLASRLYAEERYPILPEYLQCVKELYRGGLEPINFQTAADQARELINSWVESQTNGIIRNVLQPSSVDSQTAMVLVNAIVFKGLWEKAFKDEDTQAMPFRVTEQESKPVQMMYQIGLFRVASMASEKMKILELPFASGTMSMLVLLPDEVSGLEQLESIINFEKLTEWTSSNVMEERKIKVYLPRMKMEEKYNLTSVLMAMGITDVFSSSANLSGISSAESLKISQAVHAAHAEINEAGREVVGSAEAGVDAASVSEEFRADHPFLFCIKHIATNAVLFFGRCVSP
notes: anionic protein, 385 amino acid residues, 43,000 Da

Assays:
[1] = Ion-pairing screening using polymyxin B API; type: physicochemical; set-up: key to Reprecipitation: + details re-precipitation observed; − details no re-precipitation observed; key to Organic Dissolution: ++ details complete dissolution; + details non-complete dissolution; key to Precipitation: +++: + details qualitative observations of the amount of solid formed; ++: + details qualitative observations of the amount of solid formed; + details qualitative observations of the amount of solid formed; − details no solids formed; settings: for Precipitation: polymyxin B API mixed with IP in water; for Reprecipitation: polymyxin B:IP organic solution diluted ten-fold in water; for Organic Dissolution: polymyxin B:IP pellet in organic solvent (THF); for precipitation upon mixing and NC formation: FIG. 4, polymyxin
Protocol: (§1) The fifteen ion pairing (IP) reagents listed above were screened to assess if hydrophobic API salt forms would be formed and would precipitate from solution. Ion pair and API drug properties were calculated with Molinspiration software (Molinspiration Cheminformatics, Slovakia). APIs were dissolved in water at 5 mg mL^−1 concentration and mixed with IPs dissolved in water at varying concentrations to yield different API to IP ratios. The screening process determines whether a particular IP may be used with a given API for NC formation.
(§2) In the case of pre-ion pairing, API and IP are mixed in water to form a water-insoluble precipitate (referred to as an API:IP complex). The water is then removed, and the API:IP complex is dissolved into an organic solvent (along with a block copolymer) for use in the organic stream in FNP. In this case, the API:IP complex is treated as a component in the organic stream of normal FNP. The screening process for the pre-ion paired method FNP involves four sequential tests. • 1. The first test examines the solubility of the IP agent. IP is added to DI water at a concentration that would be required for a 1:1 API:IP charge ratio if the API were dissolved at 5 mg mL^−1. (In this text the ratios are presented as charge ratios of API:IP.) Substantial […] in water is required for successful ion pairing. • 2. The second test examines whether an in situ API:IP complex can be formed in a single step. For example, The second test examines whether solids precipitate upon mixing of the aqueous IP solution with an aqueous API solution. Alternatively, IP in an organic, but water miscible, solution is mixed against the aqueous API solution. The final solution is checked visually to see if precipitation has occurred. In this test, the IP solution is at a concentration such that mixing equal volumes of IP solution and API solution will form a 1:1 API to IP charge ratio. Four API:IP ratios are investigated: 200 μL API solution is mixed with 100 μL IP solution for a 1:0.5 charge ratio; 200 μL API solution is mixed with 200 μL IP solution for a 1:1 charge ratio; 200 μL API solution is mixed with 400 μL IP solution for a 1:2 charge ratio; and 200 μL API solution is mixed with 800 μL IP solution for a 1:4 charge ratio. • 3. The third test examines whether the API:IP complex can be solubilized in the organic phase for subsequent FNP NC formation. Pellets of the precipitate formed in the second test are tested to see if they are soluble in a water-miscible organic solvent such as tetrahydrofuran (THF) or more polar solvents such as dimethyl sulfoxide (DMSO) or methanol (MeOH). For example, if precipitates were formed in the second test, the mixture can be centrifuged at 20800 rcf for 20 minutes, and the aqueous supernatant can be removed in order to recover pelleted precipitate. 200 μL of organic solvent can be added to the pellet; the solution can then be mixed to determine whether the pellet dissolves. • 4. The final (fourth) test assesses if the hydrophobic API:IP complex will re-precipitates when mixed with water, e.g., upon FNP mixing with water as the antisolvent. The organic solvent containing API:IP from the third test is diluted ten-fold in water, and precipitate formation is examined. If a precipitate forms, then the construct is suitable for use in FNP. In Situ Ion Pairing
(§3) Several water-soluble counter ion salts IPs were chosen for this investigation to determine the physical properties of the counter ions required for successful complex formation (FIG. 3). A range of carboxylate and sulfonate salt IPs whose acid forms have pKa ranging 5 to −1.9 were tested, as well as salts with a wide range of solubilities and LogP values as high as 7.6 or as low as −4.92. API was dissolved at 5 mg mL^−1 in water in 1× volume, and rapidly mixed with 1× volume of dissolved IP to give a final mixture containing a 1:1 API:IP charge ratio. Mixtures were visually observed to assess if precipitates rapidly formed.

[2] = Ion-pairing screening using gentamicin API; type: physicochemical; set-up: key to Reprecipitation: + details reprecipitation observed; − details no reprecipitation observed; key to Organic Dissolution: ++ details complete dissolution; + details non-complete dissolution; key to Precipitation: +++: + details qualitative observations of the amount of solid formed; ++: + details qualitative observations of the amount of solid formed; + details qualitative observations of the amount of solid formed; − details no solids formed; settings: for Precipitation: gentamicin API mixed with IP in water; for Reprecipitation: gentamicin:IP organic solution diluted ten-fold in water; for Organic Dissolution: gentamicin:IP pellet in organic solvent (THF)
Protocol: as §1, §2
as §3, with “formed. […]” for “formed.”

[3] = API release from NCs by dialysis (BCA assay); type: physicochemical
Protocol: Drug concentrations were determined with the bicinchoninic acid (BCA) assay (Spectramax i3x, Molecular Devices) with absorbance measurements at 562 nm, using a standard curve of the same drug (unencapsulated) as the reference. API fractional release was determined by dialyzing NC sample in 100-fold 1×PBS. […] The drug concentration in each aliquot was determined by the BCA assay at 562 nm. The released fraction is the API concentration at each time point divided by the initial API concentration before dialysis (Eq. 2).
API release rates from NCs are a critical determinant of dosing frequency, in vivo active concentrations, and overall therapeutic effectiveness. The release rates of polymyxin B were assessed by enclosing NCs in an 8 kDa MWCO dialysis bag and diluting into a thousand-fold excess volume of PBS to simulate an “open sink” condition at room temperature. Encapsulated polymyxin within dialysis bags was measured over time, using the BCA assay, to determine the amount of API that had been released (FIGS. 7A, 7B, and 7C).

[4] = ambient temperature; cited from earlier work
[5] = Particle size and polydispersity by dynamic light scattering; type: physicochemical; settings: PCL5k-b-PEG5k NPs
cells = assay: Lysozyme activity after release (ability to lyse cells); type: biochemical
[6] = OVA with at least one charge equivalent of quaternary ammonium surfactant

| Molecule | Precipitation [1] | Reprecipitation [1] | Organic Dissolution [1] | Precipitation [2] | also measured |
| --- | --- | --- | --- | --- | --- |
| CCCCCCCCCCS(=O)(=O)[O-].[Na+] [Sodium 1-Decanesulfonate, sodium 1-decanesulfonate] | +++ | + | ++ | +++ | Reprecipitation [2]: +; Organic Dissolution [2]: ++ |
| CCCCCCCCS(=O)(=O)[O-].O.[Na+] [Sodium 1-Octanesulfonate Monohydrate, sodium 1-octanesulfonate monohydrate] | +++ | − | ++ | ++ | Reprecipitation [2]: −; Organic Dissolution [2]: ++ |
| Mastoparan 7 [MP7, reference compound] |  |  |  |  | characteristic release time (time for 50% release) ([3]; MP7, NPs are MP7:SDS 1:1 PCL5k-b-PEG5k): 2.9 h |
| O=S(=O)([O-])c1ccc2ccccc2c1.[Na+] [Sodium 2-Naphthalenesulfonate, sodium 2-naphthalenesulfonate] | ++ | − | ++ | ++ | Reprecipitation [2]: −; Organic Dissolution [2]: ++ |
| CC1(C)C2CC[C@]1(CS(=O)(=O)O)C(=O)C2 [(1R)-(-)-10-Camphorsulfonic Acid, (1R)-(−)-10-camphorsulfonic acid] | − |  |  | − |  |
| CCCCCCCCCCCCCC(=O)[O-].[Na+] [Sodium Myristate, sodium myristate] | ++ |  |  | − |  |
| CCCCCCCS(=O)(=O)[O-].[Na+] [Sodium 1-Heptanesulfonate, sodium 1-heptanesulfonate] | + | − | + | − |  |
| CCCCCCCCCCCCOS(=O)(=O)[O-].[Na+] [Sodium Dodecyl Sulfate, sodium dodecyl sulfate] | +++ | + | ++ | +++ | precipitation upon mixing and NC formation [1]: rapid precipitation and successful NC formation; Reprecipitation [2]: +; Organic Dissolution [2]: ++ |
| sodium deoxycholate | +++ |  |  | ++ |  |
| CCCCCCCCCCCCc1ccc(S(=O)(=O)[O-])cc1.[Na+] [Sodium Dodecylbenzenesulfonate, sodium dodecylbenezenesulfonate] | +++ | + | ++ | +++ | precipitation upon mixing and NC formation [1]: rapid precipitation and successful NC formation; Reprecipitation [2]: +; Organic Dissolution [2]: ++ |
| CCCCCCCC/C=C\CCCCCCCC(=O)[O-].[Na+] [Sodium Oleate, sodium oleate] | +++ | + | ++ | − | precipitation upon mixing and NC formation [1]: rapid precipitation and successful NC formation |
| CCCCCCCC/C=C\CCCCCCCC(=O)O [Oleic acid, oleic acid] |  |  |  |  | solubility in water [4]: ~3e-07 g/g |
| O=S(=O)(O)c1ccccc1 [Benzenesulfonic Acid Monohydrate, benzenesulfonic acid monohydrate] | − |  |  | − |  |
| CCCCCCCCCC(=O)[O-].[Na+] [Sodium Decanoate, sodium decanoate] | ++ | − |  | + |  |
| Lysozyme [LYZ] |  |  |  |  | LYZ released by 14 days ([3]; NPs with OA, 1:2 charge ratio): 20%; LYZ released by 14 days ([3]; NPs with OA, 1:4 charge ratio): 10%; LYZ released by 14 days ([3]; NPs with SDS, 1:1 charge ratio): 50%; NP diameter ([5]; LYZ pre-formed with SDS or DXS): ~150 nm; PDI ([5]; LYZ pre-formed with SDS or DXS): < 0.2; released LYZ with activity equal to LYZ that was never encapsulated (cells; following release from NPs, over all formulations): up to 100%; released LYZ that was bioactive (cells; paired 1:1 with DXS): 100%; released LYZ that was bioactive (cells; paired 1:1 with OA): 100%; released LYZ that was bioactive (cells; paired 1:1 with SDS): approximately 60%; released LYZ that was bioactive (cells; paired 1:2 with DXS): approximately 60%; released LYZ that was bioactive (cells; paired 1:2 with OA): 100%; released LYZ that was bioactive (cells; paired 1:2 with SDS): < 10%; released LYZ that was bioactive (cells; paired 1:4 with DXS): approximately 60%; released LYZ that was bioactive (cells; paired 1:4 with OA): approximately 60%; released LYZ that was bioactive (cells; paired 1:4 with SDS): < 10% |
| CCCCCC(=O)[O-].[Na+] [Sodium Hexanoate, Sodium hexanoate] | − |  |  | − |  |
| O=S(=O)([O-])CCS(=O)(=O)[O-].[Na+].[Na+] [Sodium 1,2-Ethanedisulfonate, sodium 1,2-ethanesulfonate] | − |  |  | − |  |
| B1 |  |  |  |  | NP diameter [5, 6]: ~150 nm; PDI [5, 6]: < 0.2 |
